According to the NIST ThermoML archive (doi:10.1021/je050112b):
“And” between values parts separate entries of the source, which are not always exact repeats. Equal values may be shown once. Numbers after ± are expanded uncertainties.

In the case of `[I][Sm][I]` [samarium diiodide], the “vapor or sublimation pressure” value (1048 K, Liquid) is reported as 0.00013 ± 2e-05 kPa, the “vapor or sublimation pressure” value (1051 K, Liquid) is reported as 0.00016 ± 2e-05 kPa and the “vapor or sublimation pressure” value (1064 K, Liquid) is reported as 0.00021 ± 2e-05 kPa. For the same compound, the “vapor or sublimation pressure” value (1065 K, Liquid) was 0.00019 ± 2e-05 kPa, the “vapor or sublimation pressure” value (1068 K, Liquid) was 0.00024 ± 3e-05 kPa and the “vapor or sublimation pressure” value (1069 K, Liquid) was 0.00024 ± 3e-05 kPa. The “vapor or sublimation pressure” value (1072 K, Liquid) was 0.00021 ± 3e-05 kPa, the “vapor or sublimation pressure” value (1074 K, Liquid) was 0.00027 ± 4e-05 kPa and the “vapor or sublimation pressure” value (1076 K, Liquid) was 0.00027 ± 3e-05 kPa and 0.00024 ± 3e-05 kPa. The “vapor or sublimation pressure” value (1078 K, Liquid) was 0.00029 ± 4e-05 kPa, the “vapor or sublimation pressure” value (1080 K, Liquid) was 0.0004 ± 4e-05 kPa and the “vapor or sublimation pressure” value (1082 K, Liquid) was 0.00032 ± 5e-05 kPa. The “vapor or sublimation pressure” value (1085 K, Liquid) was 0.00035 ± 4e-05 kPa, the “vapor or sublimation pressure” value (1086 K, Liquid) was 0.00035 ± 4e-05 kPa and the “vapor or sublimation pressure” value (1088 K, Liquid) was 0.00048 ± 5e-05 kPa. The “vapor or sublimation pressure” value (1089 K, Liquid) was 0.00035 ± 4e-05 kPa, the “vapor or sublimation pressure” value (1092 K, Liquid) was 0.00043 ± 5e-05 kPa and 0.00035 ± 4e-05 kPa and the “vapor or sublimation pressure” value (1093 K, Liquid) was 0.00043 ± 4e-05 kPa. For the same compound, the “vapor or sublimation pressure” value (1094 K, Liquid) was 0.00043 ± 5e-05 kPa, the “vapor or sublimation pressure” value (1096 K, Liquid) was 0.00048 ± 6e-05 kPa and the “vapor or sublimation pressure” value (1098 K, Liquid) was 0.00045 ± 5e-05 kPa. For the same compound, the “vapor or sublimation pressure” value (1100 K, Liquid) was 0.00045 ± 5e-05 kPa, the “vapor or sublimation pressure” value (1101 K, Liquid) was 0.00053 ± 6e-05 kPa and the “vapor or sublimation pressure” value (1102 K, Liquid) was 0.00075 ± 8e-05 kPa. For the same compound, the “vapor or sublimation pressure” value (1103 K, Liquid) was 0.00056 ± 7e-05 kPa, the “vapor or sublimation pressure” value (1104 K, Liquid) was 0.00059 ± 6e-05 kPa and the “vapor or sublimation pressure” value (1106 K, Liquid) was 0.00056 ± 6e-05 kPa. The “vapor or sublimation pressure” value (1108 K, Liquid) was 0.00064 ± 7e-05 kPa and 0.00051 ± 5e-05 kPa, the “vapor or sublimation pressure” value (1110 K, Liquid) was 0.00061 ± 6e-05 kPa and the “vapor or sublimation pressure” value (1111 K, Liquid) was 0.00064 ± 7e-05 kPa. For the same compound, the “vapor or sublimation pressure” value (1113 K, Liquid) was 0.00064 ± 7e-05 kPa, the “vapor or sublimation pressure” value (1114 K, Liquid) was 0.00077 ± 8e-05 kPa and the “vapor or sublimation pressure” value (1118 K, Liquid) was 0.00069 ± 9e-05 kPa and 0.00075 ± 9e-05 kPa and 0.00064 ± 8e-05 kPa. For the same compound, the “vapor or sublimation pressure” value (1120 K, Liquid) was 0.0008 ± 8e-05 kPa, the “vapor or sublimation pressure” value (1121 K, Liquid) was 0.00117 ± 0.00024 kPa and the “vapor or sublimation pressure” value (1124 K, Liquid) was 0.00093 ± 0.00012 kPa and 0.00096 ± 0.00012 kPa and 0.00085 ± 0.00011 kPa. The “vapor or sublimation pressure” value (1125 K, Liquid) was 0.00085 ± 0.00011 kPa, the “vapor or sublimation pressure” value (1126 K, Liquid) was 0.00091 ± 9e-05 kPa and the “vapor or sublimation pressure” value (1128 K, Liquid) was 0.00139 ± 0.0003 kPa and 0.00085 ± 9e-05 kPa. The “vapor or sublimation pressure” value (1129 K, Liquid) was 0.00107 ± 0.00022 kPa and 0.00096 ± 0.0001 kPa, the “vapor or sublimation pressure” value (1133 K, Liquid) was 0.00123 ± 0.00026 kPa and 0.00104 ± 0.00022 kPa and the “vapor or sublimation pressure” value (1134 K, Liquid) was 0.00107 ± 0.00022 kPa. For the same compound, the “vapor or sublimation pressure” value (1135 K, Liquid) was 0.00115 ± 0.00027 kPa, the “vapor or sublimation pressure” value (1136 K, Liquid) was 0.00134 ± 0.00029 kPa and the “vapor or sublimation pressure” value (1138 K, Liquid) was 0.00112 ± 0.00023 kPa. The “vapor or sublimation pressure” value (1139 K, Liquid) was 0.00123 ± 0.00027 kPa, the “vapor or sublimation pressure” value (1140 K, Liquid) was 0.00176 ± 0.00041 kPa and the “vapor or sublimation pressure” value (1141 K, Liquid) was 0.00128 ± 0.00027 kPa. For the same compound, the “vapor or sublimation pressure” value (1142 K, Liquid) was 0.00155 ± 0.00034 kPa and 0.00128 ± 0.00027 kPa, the “vapor or sublimation pressure” value (1144 K, Liquid) was 0.00144 ± 0.00032 kPa and the “vapor or sublimation pressure” value (1145 K, Liquid) was 0.0016 ± 0.00035 kPa and 0.00166 ± 0.00037 kPa. The “vapor or sublimation pressure” value (1148 K, Liquid) was 0.00144 ± 0.00031 kPa, the “vapor or sublimation pressure” value (1150 K, Liquid) was 0.0016 ± 0.00037 kPa and the “vapor or sublimation pressure” value (1151 K, Liquid) was 0.0016 ± 0.00036 kPa. For the same compound, the “vapor or sublimation pressure” value (1152 K, Liquid) was 0.00198 ± 0.00046 kPa, the “vapor or sublimation pressure” value (1153 K, Liquid) was 0.00182 ± 0.00043 kPa and the “vapor or sublimation pressure” value (1154 K, Liquid) was 0.00203 ± 0.00052 kPa. For the same compound, the “vapor or sublimation pressure” value (1155 K, Liquid) was 0.00214 ± 0.00052 kPa, the “vapor or sublimation pressure” value (1158 K, Liquid) was 0.00198 ± 0.00048 kPa and 0.00192 ± 0.00046 kPa and 0.00187 ± 0.00045 kPa and the “vapor or sublimation pressure” value (1159 K, Liquid) was 0.00262 ± 0.00064 kPa and 0.00203 ± 0.00048 kPa. The “vapor or sublimation pressure” value (1160 K, Liquid) was 0.0023 ± 0.00055 kPa, the “vapor or sublimation pressure” value (1161 K, Liquid) was 0.0024 ± 0.00057 kPa and 0.00219 ± 0.00052 kPa and the “vapor or sublimation pressure” value (1162 K, Liquid) was 0.00208 ± 0.00048 kPa and 0.00203 ± 0.00047 kPa. For the same compound, the “vapor or sublimation pressure” value (1164 K, Liquid) was 0.00262 ± 0.00063 kPa, the “vapor or sublimation pressure” value (1167 K, Liquid) was 0.00246 ± 0.00062 kPa and the “vapor or sublimation pressure” value (1168 K, Liquid) was 0.0024 ± 0.0006 kPa. The “vapor or sublimation pressure” value (1169 K, Liquid) was 0.00278 ± 0.0007 kPa and 0.00288 ± 0.00073 kPa, the “vapor or sublimation pressure” value (1170 K, Liquid) was 0.00272 ± 0.00069 kPa and the “vapor or sublimation pressure” value (1171 K, Liquid) was 0.00347 ± 0.0009 kPa and 0.00251 ± 0.00063 kPa and 0.00246 ± 0.00061 kPa. For the same compound, the “vapor or sublimation pressure” value (1173 K, Liquid) was 0.0031 ± 0.00079 kPa, the “vapor or sublimation pressure” value (1177 K, Liquid) was 0.00331 ± 0.00085 kPa [middle of 4 runs] and the “vapor or sublimation pressure” value (1178 K, Liquid) was 0.00326 ± 0.00087 kPa. The “vapor or sublimation pressure” value (1179 K, Liquid) was 0.00288 ± 0.00071 kPa and 0.00358 ± 0.00092 kPa and 0.00294 ± 0.00073 kPa, the “vapor or sublimation pressure” value (1181 K, Liquid) was 0.00368 ± 0.00095 kPa and the “vapor or sublimation pressure” value (1183 K, Liquid) was 0.00449 ± 0.0012 kPa. For the same compound, the “vapor or sublimation pressure” value (1185 K, Liquid) was 0.00363 ± 0.00094 kPa, the “vapor or sublimation pressure” value (1186 K, Liquid) was 0.00368 ± 0.00095 kPa [middle of 5 runs] and the “vapor or sublimation pressure” value (1187 K, Liquid) was 0.00401 ± 0.001 kPa. For the same compound, the “vapor or sublimation pressure” value (1188 K, Liquid) was 0.00427 ± 0.0011 kPa, the “vapor or sublimation pressure” value (1189 K, Liquid) was 0.00336 ± 0.00085 kPa and 0.00331 ± 0.00083 kPa and the “vapor or sublimation pressure” value (1195 K, Liquid) was 0.00443 ± 0.0012 kPa. For the same compound, the “vapor or sublimation pressure” value (1196 K, Liquid) was 0.00507 ± 0.0015 kPa.

With `[I][Sm]([I])[I]` [samarium triiodide] the “vapor or sublimation pressure” value (789 K, Crystal) was 0.00017 ± 3e-05 kPa, the “vapor or sublimation pressure” value (797 K, Crystal) was 0.00024 ± 3e-05 kPa and the “vapor or sublimation pressure” value (799 K, Crystal) was 0.0002 ± 3e-05 kPa. For the same compound, the “vapor or sublimation pressure” value (801 K, Crystal) was 0.0002 ± 2e-05 kPa, the “vapor or sublimation pressure” value (805 K, Crystal) was 0.00034 ± 5e-05 kPa and the “vapor or sublimation pressure” value (807 K, Crystal) was 0.00029 ± 6e-05 kPa. The “vapor or sublimation pressure” value (808 K, Crystal) was 0.00025 ± 5e-05 kPa, the “vapor or sublimation pressure” value (814 K, Crystal) was 0.00051 ± 7e-05 kPa and the “vapor or sublimation pressure” value (815 K, Crystal) was 0.00034 ± 7e-05 kPa. For the same compound, the “vapor or sublimation pressure” value (819 K, Crystal) was 0.00051 ± 6e-05 kPa, the “vapor or sublimation pressure” value (823 K, Crystal) was 0.00071 ± 8e-05 kPa and 0.00047 ± 6e-05 kPa and the “vapor or sublimation pressure” value (824 K, Crystal) was 0.00064 ± 7e-05 kPa. For the same compound, the “vapor or sublimation pressure” value (832 K, Crystal) was 0.00067 ± 9e-05 kPa, the “vapor or sublimation pressure” value (833 K, Crystal) was 0.00088 ± 0.00011 kPa and 0.00101 ± 0.00021 kPa and the “vapor or sublimation pressure” value (840 K, Crystal) was 0.00111 ± 0.00024 kPa and 0.00098 ± 0.00012 kPa. For the same compound, the “vapor or sublimation pressure” value (843 K, Crystal) was 0.00145 ± 0.00032 kPa, the “vapor or sublimation pressure” value (849 K, Crystal) was 0.00148 ± 0.00033 kPa and 0.00135 ± 0.0003 kPa and the “vapor or sublimation pressure” value (852 K, Crystal) was 0.00212 ± 0.0005 kPa. For the same compound, the “vapor or sublimation pressure” value (856 K, Crystal) was 0.00189 ± 0.00045 kPa, the “vapor or sublimation pressure” value (857 K, Crystal) was 0.00168 ± 0.00038 kPa and the “vapor or sublimation pressure” value (863 K, Crystal) was 0.00236 ± 0.00059 kPa. For the same compound, the “vapor or sublimation pressure” value (867 K, Crystal) was 0.00236 ± 0.00058 kPa, the “vapor or sublimation pressure” value (868 K, Crystal) was 0.00276 ± 0.00068 kPa and the “vapor or sublimation pressure” value (876 K, Crystal) was 0.00307 ± 0.00077 kPa.
